According to article PMC9692753, “Pentapeptide-Zinc Chelate from Sweet Almond Expeller Amandin Hydrolysates: Structural and Physicochemical Characteristics, Stability and Zinc Transport Ability In Vitro” (Molecules, 2022):
Marks after values point to notes of the source that are not given here. Where no end group is shown, it is not given here.

Legend:
[1] = Zinc-chelating ability assay (PAR colorimetric method); type: binding; details: sample in 0.1 mol/L HEPES-KOH buffer, DTT 8 mmol/L, ZnSO4 250 μmol/L, 37 °C 10 min, absorbance at 500 nm, n ≥ 3
Method: Zinc-chelating ability was determined using the PAR colorimetric method. […] The mixed solution was stirred (180 r/min) at 37 °C for 10 min, and then 250 μL PAR (0.2 mmol/L, pH 7.5) was added. After incubation at 37 °C for 3 min, the absorbance at 500 nm was read. […] Zinc-chelating capacity was calculated as follows:(1) Zinc chelating ability mg/g=Cc−Cs× 65.38×10^−3×V /M where, Cc (μmol/L) is the zinc concentration in the reaction solution without samples; Cs is the zinc concentration in reaction solution after the chelating reaction (μmol/L); V is the volume of the reaction solution; M is the mass of the samples (g); and 65.38 is the mol mass of zinc (g/mol).

Caco-2 cells = test: Cell viability of Caco-2 cells (MTT method); type: cell-based
Method: In addition, effects of ZnSO4/zinc gluconate and peptide-zinc chelate on cell viability were measured using the MTT method [38].

[2] = Thermal stability of zinc solubility (boiling water); details: chelate 1 mg/mL in ultrapure water, zinc sulphate and zinc gluconate 100 μg/mL; boiling water 10, 20, 40, 60 min; zinc in supernatant / total zinc; PAR method; n ≥ 3; Figure 7
Method: SAEAH peptide-zinc chelate solution (1 mg/mL, dispersed in ultrapure water) was incubated in boiling water for 10, 20, 40 and 60 min [37]. After centrifugation at 6000× g for 15 min, the supernatant was collected for zinc content determination.

Row | Compound | Zinc chelating capacity [1] | Cytotoxicity toward Caco-2 cells (Caco-2 cells) | Zinc solubility stability against incubation at 100 °C (result in words) [2]
1 | O=C(O)CN(CCN(CC(=O)O)CC(=O)O)CC(=O)O [EDTA] | 57.17 ± 2.63 ^d mg/g | – | –
2 | VDLVAEVPRGL [peptide identified in sweet almond expeller amandin hydrolysates] | 4.33 ± 0.33 ^e mg/g | – | –
3 | O=C([O-])[C@H](O)[C@@H](O)[C@H](O)[C@H](O)CO.O=C([O-])[C@H](O)[C@@H](O)[C@H](O)[C@H](O)CO.[Zn+2] [zinc gluconate] | – | no significant (p > 0.05) cytotoxicity | not reduced significantly
